# Reference: the supplement of paper PMC10627819
# Columns and labels:
# S. aureus Newman = experiment: Bliss interaction score (quartile over a dose matrix) (fitness difference); higher = more antagonism (negative = synergy)
# How it was run: (§1)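 Fitness was derived from optical density at entry into stationary phase, divided by the robust mean of the no-drug wells on the same plate. That reading was taken as OD595, and the ratio was capped at 1. Single-drug fitness was inferred from the combination data. The Bliss score, observed fitness minus the expected product of single-drug fitness, was summarised as quartiles over technical, biological and donor/recipient replicates.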
# S. pneumoniae D39V [1] = experiment: as above
# How it was run: as §1
# B. subtilis 168 = experiment: as above
# How it was run: as §1
# S. aureus DSM 20231 = experiment: as above
# How it was run: as §1
# S. pneumoniae D39V [2] = experiment: fitness (endpoint OD595 vs no drug) (fraction); higher = more growth
# How it was run: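 In 384-well plates at 37 °C, cultures began at OD595 0.01 in 30 µl, with 55 µl used for S. pneumoniae. OD595 readings every 30 min for 14 h were corrected by the first reading. Fitness divides the stationary-phase transition optical density by the robust mean of no-drug control wells. The result is capped at 1.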
# 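Throughout, for Bliss interaction score (quartile over a dose matrix): first quartile when negative (synergy) and third quartile when positive (antagonism).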
structure (smiles),measurement,setting,value
CC[C@H]1OC(=O)[C@H](C)[C@@H](O[C@H]2C[C@@](C)(OC)[C@@H](O)[C@H](C)O2)[C@H](C)[C@@H](O[C@@H]2O[C@H](C)C[C@H](N(C)C)[C@H]2O)[C@](C)(OC)C[C@@H](C)C(=O)[C@H](C)[C@@H](O)[C@]1(C)O [Clarithromycin] + C/C(=C\C(=O)OCCCCCCCCC(=O)O)C[C@@H]1OC[C@H](C[C@@H]2O[C@H]2[C@@H](C)[C@H](C)O)[C@@H](O)[C@H]1O [Pseudomonic acid],Bliss interaction score,S. aureus Newman,0.0379
same,Bliss interaction score,S. pneumoniae D39V [1],0.0643
same,Bliss interaction score,B. subtilis 168,0.0528
same,Bliss interaction score,S. aureus DSM 20231,0.0125
same,fitness,"S. pneumoniae D39V [2]; first compound 0.007812 µg/mL, partner 0.03 µg/mL, one replicate",0.925
same,fitness,"S. pneumoniae D39V [2]; first compound 0.007812 µg/mL, partner 0.06 µg/mL, one replicate",0.841
same,fitness,"S. pneumoniae D39V [2]; first compound 0.007812 µg/mL, partner 0.12 µg/mL, one replicate",0.68
same,fitness,"S. pneumoniae D39V [2]; first compound 0.01562 µg/mL, partner 0.03 µg/mL, one replicate",0.852
same,fitness,"S. pneumoniae D39V [2]; first compound 0.01562 µg/mL, partner 0.06 µg/mL, one replicate",0.838
same,fitness,"S. pneumoniae D39V [2]; first compound 0.01562 µg/mL, partner 0.12 µg/mL, one replicate",0.615
same,fitness,"S. pneumoniae D39V [2]; first compound 0.03125 µg/mL, partner 0.03 µg/mL, one replicate",0.667
same,fitness,"S. pneumoniae D39V [2]; first compound 0.03125 µg/mL, partner 0.06 µg/mL, one replicate",0.673
same,fitness,"S. pneumoniae D39V [2]; first compound 0.03125 µg/mL, partner 0.12 µg/mL, one replicate",0.412
same,fitness,"S. pneumoniae D39V [2]; first compound 0.0625 µg/mL, partner 0.03 µg/mL",0.683
same,fitness,"S. pneumoniae D39V [2]; first compound 0.0625 µg/mL, partner 0.12 µg/mL",0.431
same,fitness,"S. pneumoniae D39V [2]; first compound 0.07 µg/mL, partner 0.03 µg/mL",0.159
same,fitness,"S. pneumoniae D39V [2]; first compound 0.07 µg/mL, partner 0.06 µg/mL",0.12
same,fitness,"S. pneumoniae D39V [2]; first compound 0.07 µg/mL, partner 0.12 µg/mL",0.101
same,fitness,"S. pneumoniae D39V [2]; first compound 0.125 µg/mL, partner 0.03 µg/mL",0.427
same,fitness,"S. pneumoniae D39V [2]; first compound 0.125 µg/mL, partner 0.06 µg/mL",0.399
same,fitness,"S. pneumoniae D39V [2]; first compound 0.125 µg/mL, partner 0.12 µg/mL",0.24
same,fitness,"S. pneumoniae D39V [2]; first compound 0.14 µg/mL, partner 0.03 µg/mL",0.0976
same,fitness,"S. pneumoniae D39V [2]; first compound 0.14 µg/mL, partner 0.06 µg/mL",0.102
same,fitness,"S. pneumoniae D39V [2]; first compound 0.14 µg/mL, partner 0.12 µg/mL",0.0908
same,fitness,"S. pneumoniae D39V [2]; first compound 0.25 µg/mL, partner 0.03 µg/mL",0.258
same,fitness,"S. pneumoniae D39V [2]; first compound 0.25 µg/mL, partner 0.06 µg/mL",0.174
same,fitness,"S. pneumoniae D39V [2]; first compound 0.25 µg/mL, partner 0.12 µg/mL",0.117
same,fitness,"S. pneumoniae D39V [2]; first compound 0.28 µg/mL, partner 0.03 µg/mL",0.0736
same,fitness,"S. pneumoniae D39V [2]; first compound 0.28 µg/mL, partner 0.06 µg/mL",0.0966
same,fitness,"S. pneumoniae D39V [2]; first compound 0.28 µg/mL, partner 0.12 µg/mL",0.0699
CCC[C@@H]1C[C@@H](C(=O)N[C@@H]([C@H]2O[C@H](SC)[C@H](O)[C@@H](O)[C@H]2O)[C@H](C)Cl)N(C)C1 [Clindamycin] + CO[C@H]1/C=C/O[C@@]2(C)Oc3c(C)c(O)c4c(O)c(c(/C=N/N5CCN(C)CC5)c(O)c4c3C2=O)NC(=O)/C(C)=C\C=C\[C@H](C)[C@H](O)[C@@H](C)[C@@H](O)[C@@H](C)[C@H](OC(C)=O)[C@@H]1C [Rifampicin],Bliss interaction score,S. aureus Newman,0.0465
same,Bliss interaction score,S. pneumoniae D39V [1],-0.077
same,Bliss interaction score,B. subtilis 168,-0.223
same,Bliss interaction score,S. aureus DSM 20231,0.027
same,fitness,"S. pneumoniae D39V [2]; first compound 0.0125 µg/mL, partner 0.025 µg/mL",0.795
same,fitness,"S. pneumoniae D39V [2]; first compound 0.0125 µg/mL, partner 0.05 µg/mL",0.811
same,fitness,"S. pneumoniae D39V [2]; first compound 0.0125 µg/mL, partner 0.1 µg/mL",0.341
same,fitness,"S. pneumoniae D39V [2]; first compound 0.015 µg/mL, partner 0.025 µg/mL, one replicate",0.702
same,fitness,"S. pneumoniae D39V [2]; first compound 0.015 µg/mL, partner 0.1 µg/mL",0.267
same,fitness,"S. pneumoniae D39V [2]; first compound 0.015 µg/mL, partner 0.2 µg/mL, one replicate",0
same,fitness,"S. pneumoniae D39V [2]; first compound 0.025 µg/mL, partner 0.025 µg/mL",0.539
same,fitness,"S. pneumoniae D39V [2]; first compound 0.025 µg/mL, partner 0.05 µg/mL",0.523
same,fitness,"S. pneumoniae D39V [2]; first compound 0.025 µg/mL, partner 0.1 µg/mL",0.223
same,fitness,"S. pneumoniae D39V [2]; first compound 0.03 µg/mL, partner 0.025 µg/mL, one replicate",0.496
same,fitness,"S. pneumoniae D39V [2]; first compound 0.03 µg/mL, partner 0.1 µg/mL",0.212
same,fitness,"S. pneumoniae D39V [2]; first compound 0.03 µg/mL, partner 0.2 µg/mL, one replicate",0
same,fitness,"S. pneumoniae D39V [2]; first compound 0.05 µg/mL, partner 0.025 µg/mL",0.273
same,fitness,"S. pneumoniae D39V [2]; first compound 0.05 µg/mL, partner 0.05 µg/mL",0.215
same,fitness,"S. pneumoniae D39V [2]; first compound 0.05 µg/mL, partner 0.1 µg/mL",0.15
same,fitness,"S. pneumoniae D39V [2]; first compound 0.06 µg/mL, partner 0.025 µg/mL, one replicate",0.229
same,fitness,"S. pneumoniae D39V [2]; first compound 0.06 µg/mL, partner 0.05 µg/mL",0.226
same,fitness,"S. pneumoniae D39V [2]; first compound 0.06 µg/mL, partner 0.1 µg/mL",0.164
same,fitness,"S. pneumoniae D39V [2]; first compound 0.06 µg/mL, partner 0.2 µg/mL, one replicate",0
C[C@@H](O)[C@H]1C(=O)N2C(C(=O)O)=C(SCCNC=N)C[C@H]12 [Imipenem] + CCC(C)C1C(=O)NC(=C)C(=O)NC(C(=O)NC(CSCC(C(=O)N1)NC(=O)/C(=C/C)/NC(=O)C(C(C)CC)N)C(=O)NC2C(SCC(NC(=O)CNC(=O)C3CCCN3C2=O)C(=O)NC(CCCCN)C(=O)NC4C(SCC(NC(=O)CNC(=O)C(NC(=O)C(NC(=O)C(NC(=O)CNC4=O)C)CC(C)C)CCSC)C(=O)NC(CC(=O)N)C(=O)NC(CCSC)C(=O)NC(CCCCN)C(=O)NC5C(SCC6C(=O)NC(C(=O)NC(CSC(C(C(=O)N6)NC(=O)C(NC5=O)C)C)C(=O)NC(CO)C(=O)NC(C(C)CC)C(=O)NC(CC7=CN=CN7)C(=O)NC(C(C)C)C(=O)NC(=C)C(=O)NC(CCCCN)C(=O)O)CC8=CN=CN8)C)C)C)CC(C)C [Nisin],Bliss interaction score,S. aureus Newman; main component drawn,-0.0142
same,Bliss interaction score,S. pneumoniae D39V [1]; main component drawn,-0.0573
same,Bliss interaction score,B. subtilis 168; main component drawn,-0.0431
same,Bliss interaction score,S. aureus DSM 20231; main component drawn,0.0486
same,fitness,"S. pneumoniae D39V [2]; first compound 0.005 µg/mL, partner 0.4275 µg/mL, main component drawn",≥ 1
same,fitness,"S. pneumoniae D39V [2]; first compound 0.005 µg/mL, partner 0.855 µg/mL, main component drawn",0.992
same,fitness,"S. pneumoniae D39V [2]; first compound 0.005 µg/mL, partner 1.71 µg/mL, main component drawn",0.133
same,fitness,"S. pneumoniae D39V [2]; first compound 0.0065 µg/mL, partner 1.6 µg/mL, main component drawn",0
same,fitness,"S. pneumoniae D39V [2]; first compound 0.0065 µg/mL, partner 3.2 µg/mL, main component drawn",0
same,fitness,"S. pneumoniae D39V [2]; first compound 0.0065 µg/mL, partner 6.4 µg/mL, main component drawn",0
same,fitness,"S. pneumoniae D39V [2]; first compound 0.01 µg/mL, partner 0.4275 µg/mL, main component drawn",0.988
same,fitness,"S. pneumoniae D39V [2]; first compound 0.01 µg/mL, partner 0.855 µg/mL, main component drawn",0.993
same,fitness,"S. pneumoniae D39V [2]; first compound 0.01 µg/mL, partner 1.71 µg/mL, main component drawn",0.0676
same,fitness,"S. pneumoniae D39V [2]; first compound 0.013 µg/mL, partner 1.6 µg/mL, main component drawn",0.193
same,fitness,"S. pneumoniae D39V [2]; first compound 0.013 µg/mL, partner 3.2 µg/mL, main component drawn",0.0047
same,fitness,"S. pneumoniae D39V [2]; first compound 0.013 µg/mL, partner 6.4 µg/mL, main component drawn",0.0067
same,fitness,"S. pneumoniae D39V [2]; first compound 0.02 µg/mL, partner 0.4275 µg/mL, main component drawn",≥ 1
same,fitness,"S. pneumoniae D39V [2]; first compound 0.02 µg/mL, partner 0.855 µg/mL, main component drawn",≥ 1
same,fitness,"S. pneumoniae D39V [2]; first compound 0.02 µg/mL, partner 1.71 µg/mL, main component drawn",0.0904
same,fitness,"S. pneumoniae D39V [2]; first compound 0.026 µg/mL, partner 1.6 µg/mL, main component drawn",0.448
same,fitness,"S. pneumoniae D39V [2]; first compound 0.026 µg/mL, partner 3.2 µg/mL, main component drawn",0.0017
same,fitness,"S. pneumoniae D39V [2]; first compound 0.026 µg/mL, partner 6.4 µg/mL, main component drawn",0
